Among the data in ChEMBL document CHEMBL1137927, “Initial structure-activity relationships of lysophosphatidic acid receptor antagonists: discovery of a high-affinity LPA1/LPA3 receptor antagonist” (Bioorg Med Chem Lett, 2004) are IC50 and Ki values, retold here.

The target in experiment [1] is Lysophosphatidic acid receptor 1 (Homo sapiens, UniProt Q92633). The experiment is described as follows: In vitro ability to antagonize LPA-evoked [35S]GTP-gamma-S binding to lysophosphatidic acid receptor 1 in HEK293T cell lines. Type of experiment: functional, cell-based, HEK-293T.
Sequence of Lysophosphatidic acid receptor 1 (Q92633 whole entry): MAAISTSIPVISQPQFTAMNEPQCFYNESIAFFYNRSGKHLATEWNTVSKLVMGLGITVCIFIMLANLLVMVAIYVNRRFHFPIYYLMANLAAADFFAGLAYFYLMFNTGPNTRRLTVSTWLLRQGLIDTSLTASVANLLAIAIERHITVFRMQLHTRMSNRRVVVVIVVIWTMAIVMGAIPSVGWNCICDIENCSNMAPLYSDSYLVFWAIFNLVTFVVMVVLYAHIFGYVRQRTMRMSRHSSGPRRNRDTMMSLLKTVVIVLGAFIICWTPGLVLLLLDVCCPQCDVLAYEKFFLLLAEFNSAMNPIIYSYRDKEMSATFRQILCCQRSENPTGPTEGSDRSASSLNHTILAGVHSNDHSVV
Experiment [2] deals with T1, Lysophosphatidic acid receptor 3 (Homo sapiens, UniProt Q9UBY5).
T1 sequence (Q9UBY5 whole entry): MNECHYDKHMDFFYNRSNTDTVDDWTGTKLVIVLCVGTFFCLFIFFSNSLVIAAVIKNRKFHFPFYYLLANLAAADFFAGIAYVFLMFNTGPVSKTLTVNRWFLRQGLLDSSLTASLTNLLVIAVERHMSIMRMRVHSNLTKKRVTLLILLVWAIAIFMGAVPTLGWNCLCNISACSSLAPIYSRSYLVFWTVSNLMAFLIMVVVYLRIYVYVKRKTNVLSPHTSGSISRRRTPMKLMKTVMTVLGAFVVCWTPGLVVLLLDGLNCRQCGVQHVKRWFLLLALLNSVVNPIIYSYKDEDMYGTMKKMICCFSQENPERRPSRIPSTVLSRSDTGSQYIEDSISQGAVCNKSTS
The experiment is described as follows: In vitro antagonism of LPA-evoked [35S]GTP-gamma-S binding to lysophosphatidic acid receptor 3 in HEK293T cell lines. The format is functional, cell-based, HEK-293T.

In experiment [1], `CCCCCCCC/C=C\CCCCCCCC(=O)NC(COP(=O)(O)O)Cc1ccc(OCc2ccccc2)cc1` (stereo not drawn) registered an IC50 of 5.21 µM and a Ki of 0.137 µM. The same compound gave an IC50 in experiment [2] of 6.45 µM.
As for `CCCCCCCC/C=C\CCCCCCCC(=O)N[C@@H](COP(=O)(O)O)Cc1ccc(OC(=O)c2cc(OC)c(OC)c(OC)c2)cc1`, the IC50 in experiment [1] was greater than 10 µM; in experiment [2], 0.427 µM.
As to `CCCCCCCC/C=C\CCCCCCCC(=O)N[C@@H](COP(=O)(O)O)Cc1ccc(OC2Cc3ccccc3C2)cc1`, in experiment [1], the IC50 stood at 2.93 µM and the Ki is 0.134 µM. The compound also had an IC50 in experiment [2] of 2.31 µM.
With `CCCCCCCC/C=C\CCCCCCCC(=O)N[C@H](COP(=O)(O)O)Cc1ccc(OC(=O)c2ccc(CCCCC)cc2)cc1`, the IC50 in experiment [1] and in experiment [2] was greater than 10 µM each time.
On to `CCCCCCCC/C=C\CCCCCCCC(=O)N[C@@H](COP(=O)(O)O)Cc1ccc(Oc2cc3ccccc3[nH]2)cc1`, for which, in experiment [1], the IC50 amounted to 7 µM and the Ki came out at 0.073 µM. The same compound came in with an IC50 in experiment [2] of 2.63 µM.
For the compound `CCCCCCCC/C=C\CCCCCCCC(=O)N[C@H](COP(=O)(O)O)Cc1ccc(OCc2ccccn2)cc1`, the IC50 is 0.604 µM in experiment [1] and 0.94 µM in experiment [2]. The same compound showed a Ki in experiment [1] of 0.156 µM.
Consider `CCCCCCCCCCCCCCCC(=O)NC(COP(=O)(O)O)Cc1ccc(OCc2cccc(OC)c2)cc1` (stereo not drawn), for which the IC50 is greater than 10 µM in experiment [1] and 7.22 µM in experiment [2].
For `CCCCCCCC/C=C\CCCCCCCC(=O)N[C@@H](COP(=O)(O)O)Cc1ccc(OCc2ccccc2)cc1`, the 50% inhibitory concentration (IC50) in experiment [1] is 2.49 µM; in experiment [2], greater than 10 µM.
Take `CCCCCCCC/C=C\CCCCCCCC(=O)N[C@H](COP(=O)(O)O)Cc1ccc(OCc2ccccc2)cc1`: the IC50 in experiment [1] and in experiment [2] was greater than 10 µM throughout.
With `C#CCOc1ccc(C[C@@H](COP(=O)(O)O)NC(=O)CCCCCCC/C=C\CCCCCCCC)cc1`, the IC50 in experiment [1] and in experiment [2] was greater than 10 µM throughout.
As to `CCCCCCCC/C=C\CCCCCCCC(=O)N[C@@H](COP(=O)(O)O)Cc1ccc(OCC2CCCCC2)cc1`, the concentration for half-maximal inhibition (IC50) in experiment [1] is greater than 10 µM; in experiment [2], 4.03 µM.
Taken in the same sequence, the figures for `CCCCCCCC/C=C\CCCCCCCC(=O)N[C@@H](COP(=O)(O)O)Cc1ccc(OCCC(C)C)cc1` were greater than 10 µM and 0.351 µM.
For `CCCCCCCC/C=C\CCCCCCCC(=O)N[C@H](COP(=O)(O)O)Cc1ccc(OCC)cc1`, the concentration for half-maximal inhibition (IC50) in experiment [1] is greater than 10 µM; in experiment [2], 6.93 µM.
Take `C=CCOc1ccc(C[C@@H](COP(=O)(O)O)NC(=O)CCCCCCC/C=C\CCCCCCCC)cc1`: the IC50 in experiment [1] and in experiment [2] was greater than 10 µM in each case.
In the case of `CCCCCCCCCCCCCC(=O)NC(COP(=O)(O)O)Cc1ccc(OCc2ccccc2)cc1` (stereo not drawn), the IC50 is 9.03 µM in experiment [1] and greater than 10 µM in experiment [2].
Consider `CCCCCCCC/C=C\CCCCCCCC(=O)N[C@@H](COP(=O)(O)O)Cc1ccc(OCc2ccccn2)cc1`, for which the concentration for half-maximal inhibition (IC50) came to 0.109 µM in experiment [1] and 0.175 µM in experiment [2]. This compound also returned an inhibition constant Ki in experiment [1] of 0.018 µM.
With `CCCCCCCCCCCCCCCC(=O)NC(COP(=O)(O)O)Cc1ccc(OCc2ccccc2)cc1` (stereo not drawn), the results for the IC50 in experiment [1] and in experiment [2] were greater than 10 µM and 6.84 µM, respectively.
As to `CCCCCCCC/C=C\CCCCCCCC(=O)N[C@H](COP(=O)(O)O)Cc1ccc(OCc2cccc(OC)c2)cc1`, in experiment [1], the concentration for half-maximal inhibition (IC50) came to 5.66 µM and the Ki was 0.642 µM. For the same compound, the IC50 in experiment [2] is 0.642 µM.
On to `CCCCCCCC/C=C\CCCCCCCC(=O)N[C@@H](COP(=O)(O)O)Cc1ccc(OCc2cccc(OC)c2)cc1`, for which the IC50 came to 1.07 µM in experiment [1] and 0.0356 µM in experiment [2]. This compound also returned a Ki in experiment [1] of 0.034 µM.
On to `CCCCC/C=C\C/C=C\CCCCCCCC(=O)NC(COP(=O)(O)O)Cc1ccc(OCc2ccccc2)cc1` (stereo not drawn), for which the IC50 was 4.25 µM in experiment [1] and greater than 10 µM in experiment [2].
`CCCCCCCC(=O)NC(COP(=O)(O)O)Cc1ccc(OCc2ccccc2)cc1` (stereo not drawn): the 50% inhibitory concentration (IC50) is 7.97 µM in experiment [1] and greater than 10 µM in experiment [2].
`CCCCCCCC/C=C\CCCCCCCC(=O)N[C@H](COP(=O)(O)O)Cc1ccc(Oc2cc3ccccc3[nH]2)cc1`: the IC50 is greater than 10 µM in experiment [1] and 9.26 µM in experiment [2].
In the same order, the values of `CCCCCCCC/C=C\CCCCCCCC(=O)N[C@H](COP(=O)(O)O)Cc1ccc(OCCC(C)C)cc1` are greater than 10 µM and 5.92 µM.
`CCCCCCCCCCCCCCCCCC(=O)N[C@@H](COP(=O)(O)O)Cc1ccc(OC2O[C@H](CO)[C@@H](O)[C@H](O)[C@H]2O)cc1` (stereo partly drawn): the 50% inhibitory concentration (IC50) in experiment [1] and in experiment [2] was greater than 10 µM throughout.
With `CCCCCCCC/C=C\CCCCCCCC(=O)N[C@@H](COP(=O)(O)O)Cc1ccc(OC)cc1`, the half-inhibitory concentration (IC50) in experiment [1] and in experiment [2] was greater than 10 µM each time.
Consider `C#CCCCCOc1ccc(C[C@H](COP(=O)(O)O)NC(=O)CCCCCCC/C=C\CCCCCCCC)cc1`, for which the figures for the IC50 in experiment [1] and in experiment [2] were greater than 10 µM and 3.28 µM, respectively.
Turning to `CCCCCCCC/C=C\CCCCCCCC(=O)N[C@@H](COP(=O)(O)O)Cc1ccc(OCC)cc1`, the 50% inhibitory concentration (IC50) in experiment [1] was greater than 10 µM; in experiment [2], 6.41 µM.
In the same order, the values of `CCCCCCCC/C=C\CCCCCCCC(=O)N[C@H](COP(=O)(O)O)Cc1ccc(OC(=O)c2ccc(N)cc2)cc1` are greater than 10 µM and greater than 10 µM.
